What was measured:
Type in all cases: in vitro ADME
CYP1A2 = biological target: T1, CYP1A2 (Homo sapiens, UniProt P05177); experiment: Inhibitory effect on CYP coenzyme activity, human liver microsomes; conditions: 10 μM compound, human liver microsomes 0.25 mg/mL, substrate phenacetin, 15 minutes
T1 construct: human liver microsomes (0.25 mg/mL); from tissue; host or cells: human liver microsomes
T1 sequence (P05177 1-516): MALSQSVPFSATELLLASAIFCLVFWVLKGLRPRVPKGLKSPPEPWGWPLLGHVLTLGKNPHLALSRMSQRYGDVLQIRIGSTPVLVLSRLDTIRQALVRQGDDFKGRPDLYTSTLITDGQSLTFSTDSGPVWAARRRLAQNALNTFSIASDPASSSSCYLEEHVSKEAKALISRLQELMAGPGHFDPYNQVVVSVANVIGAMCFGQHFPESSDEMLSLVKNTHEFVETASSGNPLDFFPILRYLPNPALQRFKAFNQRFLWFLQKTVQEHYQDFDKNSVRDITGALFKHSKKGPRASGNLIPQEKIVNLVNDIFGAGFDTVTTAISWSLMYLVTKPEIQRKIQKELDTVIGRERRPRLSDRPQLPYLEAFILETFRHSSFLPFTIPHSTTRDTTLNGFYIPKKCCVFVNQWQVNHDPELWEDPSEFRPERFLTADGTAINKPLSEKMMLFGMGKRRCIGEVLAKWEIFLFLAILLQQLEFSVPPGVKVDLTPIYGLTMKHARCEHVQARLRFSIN
Procedure: (§1) The inhibitory effects of the compounds prepared according to Examples 1 to 57 on CYP coenzyme activity were identified. Specifically, human liver microsomes (0.25 mg/mL), a 0.1 M phosphate buffer solution (pH 7.4), a substrate drug cocktail of five types of drug metabolism enzymes (50 μM phenacetin, 10 μM diclofenac, 100 μM S-mephenytoin, 5 μM dextromethorphan, and 2.5 μM midazolam), and the compound at a concentration of 0 μM or 10 μM were mixed and pre-cultured at 37° C. for 5 minutes, and then further cultured at 37° C. for 15 minutes together with an NADPH generation system solution added thereto. Thereafter, the reaction was terminated by adding an acetonitrile solution containing an internal standard material (terfenadine) and centrifuged for 5 minutes (14,000 rpm, 4° C.), and then a supernatant was injected into an LC-MS/MS system for simultaneous analysis of metabolites of the substrate drugs to thereby evaluate the inhibitory effects on drug metabolism.
(§2) Metabolites of each CYP coenzyme indicator drug generated through the reaction were analyzed using the Shimadzu Nexera XR system and TSQ Vantage (Thermo). In an HPLC column, Kinetex C18 (2.1 mm×100 mm, 2.6 μm, particle size; Phenomenex, USA) was used, and mobile phases were (A) distilled water containing 0.1% formic acid and (B) acetonitrile containing 0.1% formic acid, and a gradient program shown in Table 3 was applied thereto.
(§3) The generated metabolites were quantified using a multiple reaction monitoring (MRM) quantification mode, and Xcalibur (version 1.6.1) was used for data analysis. In order to express inhibitory effects of the novel compound prepared according to the examples of the present invention on CYP coenzyme activity, CYP coenzyme activities (%) with respect to the control group not treated with the compound are shown in Table 4 below.

CYP2D6 = biological target: T2, CYP2D6 (Homo sapiens, UniProt P10635); experiment: as above; conditions: 10 μM compound, human liver microsomes 0.25 mg/mL, substrate dextromethorphan, 15 minutes
T2 construct: human liver microsomes (0.25 mg/mL); from tissue; host or cells: human liver microsomes
Procedure: as §1, §2, §3

CYP2C19 = biological target: T3, CYP2C19 (Homo sapiens, UniProt P33261); experiment: as above; conditions: 10 μM compound, human liver microsomes 0.25 mg/mL, substrate S-mephenytoin, 15 minutes
T3 construct: human liver microsomes (0.25 mg/mL); from tissue; host or cells: human liver microsomes
Procedure: as §1, §2, §3

CYP2C9 = biological target: T4, CYP2C9 (Homo sapiens, UniProt P11712); experiment: as above; conditions: 10 μM compound, human liver microsomes 0.25 mg/mL, substrate diclofenac, 15 minutes
T4 construct: human liver microsomes (0.25 mg/mL); from tissue; host or cells: human liver microsomes
Procedure: as §1, §2, §3

CYP3A4 = biological target: T5, CYP3A4 (Homo sapiens, UniProt P08684); experiment: as above; conditions: 10 μM compound, human liver microsomes 0.25 mg/mL, substrate midazolam, 15 minutes
T5 construct: human liver microsomes (0.25 mg/mL); from tissue; host or cells: human liver microsomes
Procedure: as §1, §2, §3

[1] = Liver microsome stability; conditions: 1 μM compound, 37° C., 30 minutes, NADPH; for Human (%) amount of substrate remaining after the reaction: human liver microsomes 0.25 mg/mL; for Mouse (%) amount of substrate remaining after the reaction: mouse liver microsomes 0.25 mg/mL; for Rat (%) amount of substrate remaining after the reaction: rat liver microsomes 0.25 mg/mL; for Dog (%) amount of substrate remaining after the reaction: dog liver microsomes 0.25 mg/mL
Procedure: The stability of liver microsomes due to the compounds prepared according to Examples 1 to 57 was confirmed. Specifically, four types of liver microsomes (human, dog, rat, and mouse, each 0.25 mg/mL), a 0.1 M phosphate buffer solution (pH 7.4), and each of the compounds at a concentration of 1 μM were mixed and pre-cultured at 37° C. for 5 minutes and further cultured at 37° C. for 30 minutes together with an NADPH generation system solution added thereto. Thereafter, the reaction was terminated by adding an acetonitrile solution containing an internal standard material (chloropropamide) and centrifuged for 5 minutes (14,000 rpm, 4° C.), and then a supernatant was injected into an LC-MS/MS system for analysis of substrate drugs to thereby evaluate metabolic stability due to 8 types of compounds.
The amount of the substrate remaining after the reaction was analyzed using the Shimadzu Nexera XR system and TSQ Vantage (Thermo). In an HPLC column, Kinetex XB-C18 (2.1 mm×100 mm, particle size of 2.6 μm; Phenomenex, USA) was used, and mobile phases were (A) distilled water containing 0.1% formic acid and (B) acetonitrile containing 0.1% formic acid. Analyst software (version 1.6.3) and Xcalibur (version 1.6.1) were used for data analysis.

T5 sequence (P08684 whole entry): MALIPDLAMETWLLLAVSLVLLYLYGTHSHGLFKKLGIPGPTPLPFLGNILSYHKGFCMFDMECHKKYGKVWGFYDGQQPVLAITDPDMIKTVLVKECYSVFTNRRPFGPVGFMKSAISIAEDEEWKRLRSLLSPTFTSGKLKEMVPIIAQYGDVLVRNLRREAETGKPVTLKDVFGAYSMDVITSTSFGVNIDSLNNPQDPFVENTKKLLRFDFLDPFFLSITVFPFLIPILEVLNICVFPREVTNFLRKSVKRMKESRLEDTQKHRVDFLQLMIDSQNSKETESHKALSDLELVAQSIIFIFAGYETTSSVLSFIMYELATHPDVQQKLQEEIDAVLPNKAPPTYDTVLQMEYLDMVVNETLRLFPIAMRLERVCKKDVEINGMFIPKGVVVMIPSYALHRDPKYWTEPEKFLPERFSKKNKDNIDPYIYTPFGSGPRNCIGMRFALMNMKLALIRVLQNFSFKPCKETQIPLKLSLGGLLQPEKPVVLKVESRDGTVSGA
T3 sequence (P33261 whole entry): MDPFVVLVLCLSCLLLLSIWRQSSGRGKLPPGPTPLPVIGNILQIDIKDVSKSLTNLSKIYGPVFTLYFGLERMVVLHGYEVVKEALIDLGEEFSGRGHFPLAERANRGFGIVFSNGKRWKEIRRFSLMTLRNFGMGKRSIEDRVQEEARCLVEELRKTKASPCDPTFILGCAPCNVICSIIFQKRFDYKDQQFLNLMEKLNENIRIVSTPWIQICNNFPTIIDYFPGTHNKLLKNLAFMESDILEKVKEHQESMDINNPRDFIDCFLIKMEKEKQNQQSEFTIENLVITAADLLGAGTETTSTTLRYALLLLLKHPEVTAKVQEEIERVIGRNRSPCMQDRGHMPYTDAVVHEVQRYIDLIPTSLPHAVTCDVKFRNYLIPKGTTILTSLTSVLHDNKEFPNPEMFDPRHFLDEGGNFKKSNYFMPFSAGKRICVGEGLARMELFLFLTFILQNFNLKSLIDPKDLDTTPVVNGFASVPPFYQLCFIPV
T4 sequence (P11712 whole entry): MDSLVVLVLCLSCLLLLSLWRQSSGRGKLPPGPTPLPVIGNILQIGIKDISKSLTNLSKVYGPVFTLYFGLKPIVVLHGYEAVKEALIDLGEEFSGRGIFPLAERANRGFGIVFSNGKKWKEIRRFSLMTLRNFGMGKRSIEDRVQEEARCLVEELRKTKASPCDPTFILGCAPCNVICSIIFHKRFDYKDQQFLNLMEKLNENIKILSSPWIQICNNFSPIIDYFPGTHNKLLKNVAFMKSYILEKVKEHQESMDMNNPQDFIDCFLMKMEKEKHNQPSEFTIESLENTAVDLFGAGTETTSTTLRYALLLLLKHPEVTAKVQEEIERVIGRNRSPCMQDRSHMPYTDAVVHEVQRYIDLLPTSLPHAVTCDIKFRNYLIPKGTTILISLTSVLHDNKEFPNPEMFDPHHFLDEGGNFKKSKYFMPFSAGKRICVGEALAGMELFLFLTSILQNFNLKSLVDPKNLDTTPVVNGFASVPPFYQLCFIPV
T2 sequence (P10635 whole entry): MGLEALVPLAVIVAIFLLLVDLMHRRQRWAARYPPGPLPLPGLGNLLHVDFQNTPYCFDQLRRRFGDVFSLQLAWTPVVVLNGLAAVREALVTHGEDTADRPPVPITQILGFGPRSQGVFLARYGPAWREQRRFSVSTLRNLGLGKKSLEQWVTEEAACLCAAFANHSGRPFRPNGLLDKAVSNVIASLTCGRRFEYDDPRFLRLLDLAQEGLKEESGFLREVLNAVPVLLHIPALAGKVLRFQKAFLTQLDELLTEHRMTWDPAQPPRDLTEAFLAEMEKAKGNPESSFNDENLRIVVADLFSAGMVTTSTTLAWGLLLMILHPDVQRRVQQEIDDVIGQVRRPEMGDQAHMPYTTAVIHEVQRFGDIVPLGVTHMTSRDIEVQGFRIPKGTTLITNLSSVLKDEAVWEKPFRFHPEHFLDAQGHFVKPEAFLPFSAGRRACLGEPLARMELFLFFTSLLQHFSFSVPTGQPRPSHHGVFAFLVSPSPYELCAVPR

Compound	CYP1A2 coenzyme activity (%) with respect to control group not treated (CYP1A2)	CYP2D6 coenzyme activity (%) with respect to control group not treated (CYP2D6)	CYP2C19 coenzyme activity (%) with respect to control group not treated (CYP2C19)	CYP2C9 coenzyme activity (%) with respect to control group not treated (CYP2C9)	CYP3A4 coenzyme activity (%) with respect to control group not treated (CYP3A4)	Human (%) amount of substrate remaining after the reaction [1]	Mouse (%) amount of substrate remaining after the reaction [1]	Rat (%) amount of substrate remaining after the reaction [1]	Dog (%) amount of substrate remaining after the reaction [1]
CCn1c(=O)n(C)c2cc(NN=C(C#N)C#N)cnc21 [Compound 48, (3-ethyl-1-methyl-2-oxo-2,3-dihydro-1H-imidazo[4,5-b]pyridin-6-yl)carbonohydrazonoyl dicyanide]	>100%	>100%	>100%	>100%	>100%	96.7%	>100%	96.3%	–
Cn1ccc2c(NN=C(C#N)C#N)cccc2c1=O [Compound 5, (2-methyl-1-oxo-1,2-dihydroisoquinolin-5-yl)carbonohydrazonoyl dicyanide]	70.7%	93.1%	>100%	29.1%	88.6%	98.1%	92.9%	>100%	>100%
Cc1cc2c(NN=C(C#N)C#N)cccc2c(=O)n1C [Compound 7, (2,3-dimethyl-1-oxo-1,2-dihydroisoquinolin-5-yl)carbonohydrazonoyl dicyanide]	33.2%	86.2%	65.1%	29.8%	72%	96%	93.3%	89.7%	95.7%
N#CC(C#N)=NNc1ccc2c(c1)n(C(F)F)c(=O)n2C(F)F [Compound 24, (1,3-bis(difluoromethyl)-2-oxo-2,3-dihydro-1H-benzo[d]imidazol-5-yl)carbonohydrazonoyl dicyanide]	32.8%	82.5%	73.9%	40.6%	78.1%	88.2%	84.1%	86.8%	88.1%
Cn1c(=O)n(C)c2cc(NN=C(C#N)C#N)c(Cl)cc21 [Compound 10, (6-chloro-1,3-dimethyl-2-oxo-2,3-dihydro-1H-benzo[d]imidazol-5-yl)carbonohydrazonoyl dicyanide]	94.2%	>100%	94.6%	>100%	>100%	>100%	92.6%	92.7%	98.1%
N#CC(C#N)=NNc1ccc2c(c1)oc(=O)n2C(F)F [Compound 21, (3-(difluoromethyl)-2-oxo-2,3-dihydrobenzo[d]oxazol-6-yl)carbonohydrazonoyl dicyanide]	79.6%	89.1%	83.7%	64.4%	90.4%	73.9%	71.8%	79.8%	72.1%
N#CC(C#N)=NNc1ccc2c(c1)sc(=O)n2C(F)F [Compound 19, (3-(difluoromethyl)-2-oxo-2,3-dihydrobenzo[d]thiazol-6-yl)carbonohydrazonoyl dicyanide]	52.5%	40.5%	75.7%	23.3%	81.8%	99.7%	58.7%	69.7%	80.4%
CC(C)n1c(=O)oc2cc(NN=C(C#N)C#N)ccc21 [Compound 20, (3-isopropyl-2-oxo-2,3-dihydrobenzo[d]oxazol-6-yl)carbonohydrazonoyl dicyanide]	87.3%	98.1%	85.7%	32.3%	98.8%	98.1%	73.1%	73.3%	95.6%
CC(C)n1c(=O)sc2cc(NN=C(C#N)C#N)ccc21 [Compound 18, (3-isopropyl-2-oxo-2,3-dihydrobenzo[d]thiazol-6-yl)carbonohydrazonoyl dicyanide]	81.4%	88.1%	63.2%	7.5%	78.3%	85.1%	71.3%	70.8%	93.8%
